Assay results taken from patent EP0402734A2, “Composition for the treatment of application of the central nervous system and to enhance cerebral perfusion” (Dr. Karl Thomae GmbH, priority 1989, dated 1990).

Tests used:
[1] = tested on: inhibitorischen Autorezeptoren in hippocampalem Gewebe; test: Transmitter release study: in vitro acetylcholine release from electrically stimulated hippocampal slices, antagonism of carbachol; type: cell-based, Ratten; details: rat hippocampal slices 0,4 mm, preloaded with ³H-Cholin, electrical stimulation 3 Hz, agonist Carbachol
Excerpt: B. Transmitter Release Studien
Die Versuche zur in-vitro Freisetzung von Acetylcholin aus hippocampalen Gewebeschnitten wurden in Analogie zu Anord nungen durchgeführt, die für die Freisetzung von 5-HT aus Hypothalamus- bzw. Hippocampus-Gewebe beschrieben sind (vgl. M.H. Richards, Naunyn Schmiedeberg's Arch. Pharmacol. 329, 359-366 (1985) und T.J. Feuerstein, G. Hertting und R. Jackisch, Europ. J. Pharmacol. 107, 233-242 (1985)).
Männliche Ratten (Stamm Chbb:Thom, Gewicht 200 bis 300 g) wurden ohne Vorbehandlung dekapitiert; das gesamte Gehirn wurde sofort entnommen und unter Eiskühlung zerlegt. Gemäß den oben beschriebenen Verfahren wurde der Hippocampus in 0,4 mm dicke Schnitte mit Hilfe eines McIlwain-Gewebehackers geschnitten. Die Gewebeschnitte wurden 30 Minuten lang bei 37°C vorincubiert in Gegenwart von 0,05 mM ³H-Cholin in Krebs-Henseleit Puffer der folgenden Zusammensetzung: 120 mM NaCl, 4,8 mM KCl, 1,3 mM CaCl₂, 1,2 mM KH₂PO₄, 1,2 mM MgSO₄ und 25 mM NaHCO₃. Der Puffer enthielt zusätzlich 2 g Glucose und 100 mg EDTA. Der Puffer wurde mit Natronlauge auf einen pH-Wert von 7,4 bei 20°C eingestellt. Alle Lösungen wurden kontinuierlich mit 95 % O₂ und 5 % CO₂ gesättigt. Die Gewebeschnitte wurden daraufhin gespült, jeder Gewebeschnitt wurde jeweils willkürlich auf 12 Superfusionseinheiten gegeben und mit der Pufferlösung bei 37°C bei einer Fließgeschwindigkeit von 1 ml/min überspült. Die Gewebeschnitte wurden jeweils von einem Polypropylennetzwerk zwischen zwei Platinelektroden gehalten. Nach 50-minütiger Überspülung wurden 4-Minuten-Fraktionen des Superfusats über eine gesamte Zeitdauer von 92 Minuten gesammelt. Die Gewebeschnitte wurden zweimal elektrisch stimuliert, und zwar 60 Minuten (S1) und 100 Minuten (S2) nach Beginn der Superfusion. Dabei wurden Rechteckimpulse von 2 ms Dauer und mit einer Frequenz von 3 Hz 100 Sekunden lang bei 5 V/cm und 24 mA mittels eines HSE Stimulators II der Firma Hugo Sachs Elektronik, Hugstetten, West-Deutschland, verabreicht. Die zu prüfenden Substanzen wurden dem Puffer ab 20 Minuten vor dem Zeitpunkt S2 zusammen mit dem Agonisten (Carbachol) beigefügt. Am Ende wurden die Gewebeschnitte aus den Kammern entfernt und zur Bestimmung des verbliebenen Tritiums solubilisiert. […]

[2] = target: muscarinische Rezeptoren der Pia mater des Rindes; test: Inhibition of 3H-NMS binding to muscarinic receptors in bovine pia mater vessel homogenate; design: species or system Rind; details: Hemmung der ³H-NMS-Bindung, 0,3 nM [³H]NMS, 45 min, room temperature
Experimental: A. Bindung verschiedener muskarinischer Antagonisten an Rezeptoren der Pia mater des Rindes
Die Pia-Gefäße von Rinder-Hirnen, erhalten vom lokalen Schlachthof, wurden präpariert und von Blutresten gereinigt. Je 0,5 g-Portionen wurden bei -80°C bis zur weiteren Verwendung gelagert. Zur Homogenatgewinnung wurden 0,5 g Pia-Gefäße mittels eines Gewebehackers zerkleinert, in 60 ml HEPES-Puffer (20 mM HEPES, 10 mM MgCl₂, 100 mM NaCl, pH 7,50) aufgenommen, mit einem Ultra-Turrax homogenisiert und 20 min. bei 0°C mit 48000 x g zentrifugiert. Das Pellet wurde erneut mit einem Ultra-Turrax homogenisiert, durch Mull filtriert und mit HEPES-Puffer auf eine Verdünnung von 1:140 bezogen auf das Feuchtgewicht der Gefäße verdünnt.
0,3 nM [³H]NMS (³H-N-Methylscopolamin) und steigende Konzentrationen des Antagonisten wurden mit dem Homogenat in einem Gesamtvolumen von 0,52 ml für 45 min. bei Raumtemperatur inkubiert. Der Inkubationsansatz wurde mit Hilfe eines Scatron Cell Harvesters über Glasfaser-Filtermatten filtriert und zweimal mit eiskalter physiologischer Kochsalzlösung gewaschen. Die Filter-gebundene Radioaktivität wurde in einem Flüssigkeitsszintillationszähler bestimmt. Als unspezifische Bindung wurde die gebundene Radioaktivität in Gegenwart von 10⁻⁶M (-)-Chinuclidinyl-benzilat definiert.

SMILES	ACh-Release aus Hippocampus-Gewebe (pA₂) [1]	-log IC₅₀ (M) [2]
CCN(CC)CC1CCCCN1CC(=O)N1c2ccccc2C(=O)Nc2cccnc21 (single isomer, unassigned; (+)) [A, (+)-11-[[2-[(Diethylamino)methyl]-1-piperidinyl]acetyl]-5,11-dihydro-6H-pyrido[2,3-b][1,4]benzodiazepin-6-on]	7,15	7,1 M
O=C1Nc2cccnc2N(C(=O)N2CCCC(CCCN3CCCCC3)C2)c2ccccc21 (centres unmarked) [E, 5,11-Dihydro-11-[[3-[3-(1-piperidinyl)-1-propyl]-1-piperidinyl]carbonyl]-6H-pyrido[2,3-b][1,4]benzodiazepin-6-on]	9,55	8,8 M
CCN(CC)CC1CCCCN1CC(=O)N1c2cc(Cl)ccc2C(=O)Nc2cccnc21 (racemic) [C, (±)-9-Chlor-11-[[2-[(diethylamino)methyl]-1-piperidinyl]acetyl]-5,11-dihydro-6H-pyrido[2,3-b][1,4]benzodiazepin-6-on]	7,3	7,5 M
CN(CCC1CCCCCN1C)CC(=O)N1c2ccccc2C(=O)Nc2cccnc21 (centres unmarked) [L, 5,11-Dihydro-11-[[[2-(1-methyl-hexahydro-1H-2-azepinyl)ethyl]methylamino]acetyl]-6H-pyrido[2,3-b][1,4]benzodiazepin-6-on]	8,45	8,4 M
Cc1scc2c1N(C(=O)CN1CCC(CCCN3CCCCC3)CC1)c1ccccc1NC2=O [F, 4,9-Dihydro-3-methyl-4-[[4-[3-(1-piperidinyl)-1-propyl]-1-piperidinyl]acetyl]-10H-thieno[3,4-b][1,5]benzodiazepin-10-on]	7,7	8,6 M
O=C1Nc2cccnc2N(C(=O)CCC#CCN2CCCCC2)c2ccccc21 [B, 5,11-Dihydro-11-[1-oxo-6-(1-piperidinyl)-4-hexin-1-yl]-6H-pyrido[2,3-b][1,4]benzodiazepin-6-on]	7,2	6,9 M
Cc1scc2c1N(C(=O)CCC#CCN1CCCCCC1)c1ccccc1NC2=O [H, 4,9-Dihydro-3-methyl-4-[6-(hexahydro-1H-1-azepinyl)-1-oxo-4-hexin-1-yl]-10H-thieno[3,4-b][1,5]benzodiazepin-10-on]	8,0	8,0 M
CN(CCC1CCCN1C)CC(=O)N1c2ccccc2C(=O)Nc2cccnc21 (centres unmarked) [K, 5,11-Dihydro-11-[[[2-(1-methyl-2-pyrrolidinyl)ethyl]methylamino]acetyl]-6H-pyrido[2,3-b][1,4]benzodiazepin-6-on]	8,5	8,2 M
CCCN(CCC)CC1CCCCN1CCNC(=O)N1c2ccccc2C(=O)Nc2cccnc21.CS(=O)(=O)O (centres unmarked) [D, 5,11-Dihydro-11-[[[2-[2-[(dipropylamino)methyl]-1-piperidinyl]ethyl]amino]carbonyl]-6H-pyrido[2,3-b][1,4]benzodiazepin-6-on-methansulfonat]	8,35	7,9 M
CCN(CC)CC1COCCN1CCCC(=O)N1c2ccccc2C(=O)Nc2cccnc21 (centres unmarked) [I, 11-[4-[3-[(Diethylamino)methyl]-4-morpholinyl]-1-oxo-1-butyl]-5,11-dihydro-6H-pyrido[2,3-b][1,4]benzodiazepin-6-on]	7,5	7,7 M
